Experimental findings from US20150126369A1, “SYNERGISTIC HERBICIDAL COMPOSITION” (ROTAM AGROCHEM INTERNATIONAL COMPANY LIMITED, priority 2013, published 2015) are described below.

Assay type in all cases: in vivo
In one experiment the test system is Alopecurus. In words: Field test, postemergence herbicidal activity on Alopecurus in sulfonylurea-resistant rape. The settings on record: four weeks after the treatment; for pest or weed control at 10 g/ha: Alopecurus, post-emergence, 672 h, read-out: Injury of Alopecurus % Experimental value. The text has this: (§1) A synergistic effect exists when the effect of the composition exceeds the sum of the effects of the compounds applied separately.
(§2) If the actually observed activity (O) is greater than the expected activity (E), then the composition is superadditive, i.e., synergism is present.
(§3) Sulfonylurea herbicides-resistant non-genetically modified rape crops were planted with typical weeds under natural outdoors conditions. When the rape plants grew, the weed populations naturally occurred. The weeds were treated during postemergence at 2-4 leaf stage.

The subject of a further experiment is Datura. In words: Field test, postemergence herbicidal activity against Datura in sulfonylurea-resistant rape. The settings on record: four weeks after the treatment; for pest or weed control at 5 g/ha: Datura, post-emergence, 672 h, read-out: Injury of Datura % Experimental value.
Source text: as §1, §2, §3

In a further experiment the test system is Beckmannia. Nature of the experiment: Field test, postemergence herbicidal activity on Beckmannia in sulfonylurea-resistant rape.
Source text: (§4) A synergistic effect exists when the effect of the composition exceeds the sum of the effects of the compounds applied separately. The expected effect for a specific combination of two active compounds can be calculated using a so-called “Colby formula” (see S. R. Colby, “Calculating Synergistic and Antagonistic Responses of Herbicide Combinations”, Weeds 1967,15, 20-22) as follows: if
as §2
(§5) Sulfonylurea herbicides-resistant non-genetically modified rape crops were planted with typical weeds under natural outdoors conditions. When the rape plants grew, the weed populations naturally occurred. The weeds were treated during postemergence at 2-4 leaf stage. To reflect the synergistic effect, they were treated with a lower dosage than the common dosage.

The test system of another experiment is Setaria. Nature of the experiment: Field test, postemergence herbicidal activity on Setaria in sulfonylurea-resistant rape. To be noted: four weeks after the treatment; for pest or weed control at 1 g/ha: Setaria, post-emergence, 672 h, read-out: Injury of Setaria % Experimental value.
Source text: as §1, §2, §3

Another experiment has as its system Stellaria. Nature of the experiment: Field test, postemergence herbicidal activity on Stellaria in sulfonylurea-resistant rape. To be noted: 10 gram ai/ha, four weeks after the treatment; for pest or weed control at 10 g/ha: Stellaria, post-emergence, 672 h, read-out: Injury of Stellaria % Experimental value.
Source text: as §1, §2, §3

For the next experiment, the system named is Galium. In words: Field test, postemergence herbicidal activity on Galium in sulfonylurea-resistant rape. The settings on record: four weeks after the treatment; for pest or weed control at 0.1 g/ha: Galium, post-emergence, 672 h, read-out: Injury of Galium % Experimental value.
Source text: as §1, §2, §3

A further experiment concerns Chenopodium. Nature of the experiment: Field test, postemergence herbicidal activity on Chenopodium in sulfonylurea-resistant rape.
Source text: as §4, §2, §5

Setting [1] is: sulfonylurea alone, 10 gram ai/ha.
[2] abbreviates: sulfonylurea alone, 5 gram ai/ha.
Setting [3] is: post-emergence, 672 h, sulfonylurea alone, 10 gram ai/ha, four weeks after the treatment, read-out: Injury of Beckmannia % Experimental value.
The mark [4] stands for this setting: sulfonylurea alone, 1 gram ai/ha.
Setting [5] is: sulfonylurea alone, 0.1 gram ai/ha.
Setting [6] is: Chenopodium, post-emergence, 672 h, sulfonylurea alone, 10 gram ai/ha, four weeks after the treatment, read-out: Injury of Chenopodium % Experimental value.
The mark [7] stands for this setting: sulfonylurea alone, 10 gram ai/ha, four weeks after the treatment.

Turning to `COC(=O)c1ccccc1CS(=O)(=O)NC(=O)Nc1nc(OC)cc(OC)n1` [bensulfuron-methyl, methyl 2-[((4,6-dimethoxypyrimidin-2-yl)aminocarbonylamino]sulfonylmethyl)benzoate], the pest or weed control at 10 g/ha in the experiment on Alopecurus (setting [1]) is 0%; with Beckmannia (setting [3]), 0%; in the experiment with Stellaria (sulfonylurea alone), 64%; with Chenopodium (setting [6]) it was 12.2%. For the same molecule, in the experiment with Datura (setting [2]), the pest or weed control at 5 g/ha was found to be 32%. The pest or weed control at 1 g/ha with Setaria (setting [4]) came to 0%. In the experiment with Galium (setting [5]), the pest or weed control at 0.1 g/ha amounted to 16%.
On to `COC(=O)c1sccc1S(=O)(=O)NC(=O)Nc1nc(C)nc(OC)n1` [thifensulfuron-methyl, 3-(4-methoxy-6-methyl-1,3,5-triazin-2-yl)-1-(2-methoxyformylthiophen-3-yl)-sulfonylurea], for which the pest or weed control at 10 g/ha in the experiment on Alopecurus (setting [1]) turned out to be 0%; in the experiment on Beckmannia (setting [3]) it was 0%; in the experiment with Stellaria (sulfonylurea alone), 57%; in the experiment with Chenopodium (setting [6]), 8.1%. Moreover, in the experiment with Datura (setting [2]), the pest or weed control at 5 g/ha came to 22%. For the same molecule, the pest or weed control at 1 g/ha in the experiment on Setaria (setting [4]) came out at 0%. In the experiment with Galium (setting [5]), the pest or weed control at 0.1 g/ha was 8%.
In the case of `COc1cc(OC)nc(NC(=O)NS(=O)(=O)N(C)S(C)(=O)=O)n1` [amidosulfuron, 1-(4,6-dimethoxypyrimidin-2-yl)-3-mesyl(methyl)sulfamoylurea], the pest or weed control at 10 g/ha is 0% with Alopecurus (setting [1]), 0% with Beckmannia (setting [3]), 35% with Stellaria (sulfonylurea alone) and 35.8% in the experiment with Chenopodium (setting [6]). The pest or weed control at 5 g/ha with Datura (setting [2]) was determined as 27%. The pest or weed control at 1 g/ha in the experiment on Setaria (setting [4]) stood at 0%. For the same molecule, in the experiment on Galium (setting [5]), the pest or weed control at 0.1 g/ha came out at 5%.
Take `Cc1ccnc(NC(=O)NS(=O)(=O)c2ccccc2[N+](=O)[O-])n1` [monosulfuron]: the “Injury of Alopecurus % Experimental value” with Alopecurus (setting [1]) worked out at 5%. Besides, the “Injury of Datura % Experimental value” with Datura (setting [2]) came out at 24%. Also, in the experiment on Beckmannia (setting [7]), the “Injury of Beckmannia % Experimental value” stood at 7%. For the same molecule, the “Injury of Setaria % Experimental value” in the experiment on Setaria (setting [4]) came out at 0%. Also, the “Injury of Stellaria % Experimental value” with Stellaria (sulfonylurea alone) worked out at 34%. For the same molecule, the “Injury of Galium % Experimental value” in the experiment with Galium (setting [5]) amounted to 7%. The “Injury of Chenopodium % Experimental value” in the experiment with Chenopodium (setting [7]) turned out to be 23.5%.
For the molecule `COc1cc(OC)nc(NC(=O)NS(=O)(=O)Nc2ccccc2C(=O)C2CC2)n1` [cyclosulfamuron], the pest or weed control at 10 g/ha amounted to 0% in the experiment with Alopecurus (setting [1]), 0% in the experiment on Beckmannia (setting [3]), 48% in the experiment on Stellaria (sulfonylurea alone) and 4.1% in the experiment with Chenopodium (setting [6]). The pest or weed control at 5 g/ha in the experiment on Datura (setting [2]) is 26%. Also, the pest or weed control at 1 g/ha in the experiment with Setaria (setting [4]) is 0%. The pest or weed control at 0.1 g/ha in the experiment on Galium (setting [5]) came out at 9%.
`CCC/C(=N\OCC)C1=C(O)CC(CC(C)SCC)CC1=O` (racemic) [sethoxydim, (±)-2-[1-(ethoxyimino)butyl]-5-[2-(ethylthio)propyl]-3-hydroxy-2-cyclo hexen-1-one]: the pest or weed control at 0.2 g/ha with Beckmannia (post-emergence, 672 h, read-out: Injury of Beckmannia % Experimental value) worked out at 0%. Further, the pest or weed control at 0.1 g/ha with Chenopodium (Chenopodium, post-emergence, 672 h, read-out: Injury of Chenopodium % Experimental value) amounted to 0%.
Take `COc1nc(C)nc(NC(=O)NS(=O)(=O)c2ccccc2OCCCl)n1` [triasulfuron, 1-[2-(2-chloroethoxyl)phenylsulfonyl]-3-(4-methoxy-6-methyl-1,3,5-triazin-2-yl)urea]: the pest or weed control at 10 g/ha in the experiment with Alopecurus (setting [1]) was found to be 0%; with Beckmannia (setting [3]), 0%; with Stellaria (sulfonylurea alone) it was 40%; with Chenopodium (setting [6]) it was 22.5%. Also, in the experiment on Datura (setting [2]), the pest or weed control at 5 g/ha was 28%. The pest or weed control at 1 g/ha in the experiment with Setaria (setting [4]) amounted to 0%. For the same molecule, the pest or weed control at 0.1 g/ha in the experiment on Galium (setting [5]) was determined as 13%.
As for `COC(=O)c1ccccc1S(=O)(=O)NC(=O)Nc1nc(C)nc(OC)n1` [metsulfuron-methyl, methyl 2-[(4-methoxy-6-methyl-1,3,5-triazin-2-yl)ureidosulfonyl]benzoate], the pest or weed control at 10 g/ha in the experiment on Alopecurus (setting [1]) was 82%; with Beckmannia (setting [3]), 24.8%; with Stellaria (sulfonylurea alone), 58%; in the experiment on Chenopodium (setting [6]) it was 88.4%. Also, the pest or weed control at 5 g/ha with Datura (setting [2]) worked out at 27%. Also, in the experiment with Setaria (setting [4]), the pest or weed control at 1 g/ha was 0%. Also, the pest or weed control at 0.1 g/ha in the experiment on Galium (setting [5]) was found to be 11%.
For the molecule `COc1nc(C)nc(NC(=O)NS(=O)(=O)c2ccccc2Cl)n1` [chlorsulfuron], the pest or weed control at 10 g/ha was determined as 54% with Alopecurus (setting [1]), 36.2% in the experiment with Beckmannia (setting [3]), 55% in the experiment with Stellaria (sulfonylurea alone) and 53.6% in the experiment with Chenopodium (setting [6]). Also, the pest or weed control at 5 g/ha with Datura (setting [2]) is 34%. For the same molecule, the pest or weed control at 1 g/ha with Setaria (setting [4]) is 0%. The pest or weed control at 0.1 g/ha in the experiment with Galium (setting [5]) came to 10%.
Regarding `COc1cc(OC)nc(NC(=O)NS(=O)(=O)c2ncccc2C(=O)N(C)C)n1` [nicosulfuron, 2-(4,6-dimethoxypyrimidin-2-ylcarbamoylsulfamoyl)-N,N-dimethylnicotinamide], the pest or weed control at 10 g/ha in the experiment on Alopecurus (setting [1]) turned out to be 5%; in the experiment on Beckmannia (setting [3]), 50.3%; with Stellaria (sulfonylurea alone), 60%; in the experiment with Chenopodium (setting [6]), 4%. Moreover, the pest or weed control at 5 g/ha with Datura (setting [2]) was 11%. Moreover, the pest or weed control at 1 g/ha in the experiment on Setaria (setting [4]) worked out at 2%. For the same molecule, in the experiment on Galium (setting [5]), the pest or weed control at 0.1 g/ha was 1%.
“(±)-2-[(E)-3-chloroallyloxyimino]propyl-5-[2-(ethylthio) propyl]-3-hydroxycyclohexen-2-one [clethodim]”: the “Injury of Alopecurus % Experimental value” in the experiment on Alopecurus (clethodim alone, 1 gram ai/ha) is 5%. For the same molecule, in the experiment on Datura (clethodim alone, 50 gram ai/ha), the “Injury of Datura % Experimental value” was 0%. The “Injury of Setaria % Experimental value” in the experiment on Setaria (clethodim alone, 50 gram ai/ha) turned out to be 57.4%. For the same molecule, in the experiment on Stellaria (clethodim alone), the “Injury of Stellaria % Experimental value” stood at 0%. Also, in the experiment with Galium (clethodim alone, 10 gram ai/ha), the “Injury of Galium % Experimental value” was 0%.
